Results: US6933312B2, “Pyrazole derivatives” (Agouron Pharmaceuticals, Inc., priority 2002, dated 2005)

Tests used:
[1] = target: T1, purified recombinant HIV-1 reverse transcriptase (Human immunodeficiency virus type 1 group M subtype B, UniProt P04585); assay: Inhibition of HIV-1 Reverse Transcriptase Enzyme; assay type: biochemical; details: Poly(rA)-oligo(dT) [3H]-SPA or [3H]-flashplate enzyme assay; 5% final DMSO
T1 construct: purified recombinant HIV-1 reverse transcriptase (RT, EC, 2.7.7.49); made in house; host or cells: Escherichia coli
Text: The activity of the compounds of the invention as reverse transcriptase inhibitors may be measured using the following assay.
Inhibition of HIV-1 Reverse Transcriptase Enzyme
Using purified recombinant HIV-1 reverse transcriptase (RT, EC, 2.7.7.49) obtained by expression in Escherichia Coli, a 96-well plate assay system is established for assaying a large number of samples using either the Poly(rA)-oligo(dT) Reverse Transcriptase [3H]-SPA enzyme assay system (Amersham NK9020) or the [3H]-flashplate enzyme assay system (NEN—SMP 103) and following the manufacturer's recommendations. The compounds are dissolved in 100% DMSO and diluted with the appropriate buffer to a 5% final DMSO concentration. The inhibitory activity is expressed in percent inhibition relative to DMSO control.

SMILES	melting point [°C]	IC50 [1] [nM]
Cc1n[nH]c(CN2Cc3ncccc3C2=O)c1Oc1cc(Cl)cc(C#N)c1	225 to 227	
Cc1n[nH]c(CN2Cc3ccccc3C2=O)c1Oc1cc(Cl)cc(C#N)c1 [Example 1, 3-Chloro-5-[3-methyl-5-(1-oxo-1,3-dihydro-isoindol-2ylmethyl)-1H-pyrazol-4-yloxy]-benzonitrile]		76
Cc1n[nH]c(CN2Cc3ccccc3C2=O)c1Oc1cc(C#N)cc(C#N)c1 [Example 4, 5-[3-Methyl-5-(1-oxo-1,3-dihydro-isoindol-2-ylmethyl)-1H-pyrazol-4-yloxy]-isophthalonitrile]	247 to 248	505
